SMILES strings stand for the structures. Active and inactive are the calls of the source. How the calls were made is not given here.

Sequence of Dual specificity protein phosphatase 1 (Homo sapiens) (P28562 whole entry, looked up): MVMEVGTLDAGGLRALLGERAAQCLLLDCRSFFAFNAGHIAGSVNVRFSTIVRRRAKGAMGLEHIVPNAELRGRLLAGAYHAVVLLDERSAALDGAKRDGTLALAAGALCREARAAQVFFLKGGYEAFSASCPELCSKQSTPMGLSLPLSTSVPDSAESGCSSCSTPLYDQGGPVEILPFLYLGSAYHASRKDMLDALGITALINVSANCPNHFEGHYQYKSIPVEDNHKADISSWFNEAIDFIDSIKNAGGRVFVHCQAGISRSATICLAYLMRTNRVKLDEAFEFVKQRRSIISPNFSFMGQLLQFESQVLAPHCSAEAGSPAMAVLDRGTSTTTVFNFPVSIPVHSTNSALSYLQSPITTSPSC

This experiment addresses Dual specificity protein phosphatase 1 (Homo sapiens) (UniProt P28562). Nature of the experiment: MKP-1 phosphatase inhibitor potency, dose response, biochemical, in vitro, confirmation (AID 551). The conditions noted are these: recombinant MKP-1 phosphatase, fluorescence substrate.
As for `O=C1C(C2=C(O)c3ccccc3C2=O)=Nc2ccccc21`, the IC50 was > 50 µM (inactive). The same measure for `COC(=O)C1=C(C)NC2=C(C(=O)c3ccccc32)C1c1ccc(-c2ccc(C(=O)O)cc2)o1` (centres undefined): > 50 µM (inactive); for `Oc1ccc2ccccc2c1C=NC12CN3CCN(CN(C3)C1)C2`: > 50 µM (inactive); for `Cc1cc(C)n2c(SCC(=O)N3CCN(S(=O)(=O)c4ccc(Cl)cc4)CC3)nnc2n1`: 50 µM. Under `O=C1c2cccnc2C(Nc2ccc(S(=O)(=O)N3CCCCCC3)cc2)N1Cc1ccccc1` (centres undefined) stands > 50 µM (inactive).

On to `O=C1c2ccccc2-c2onc3ccc(NCCCn4ccnc4)c1c23`, for which the IC50 is 27.8 µM. As for `CCOC(=O)c1ccc(NC2c3ncccc3C(=O)N2Cc2ccc(F)cc2)cc1` (centres undefined), the IC50 is > 50 µM (inactive). Under `CCSCCOC(=O)C1=C(C)NC2=C(C(=O)CCC2)C1c1coc2ccccc2c1=O` (centres undefined) stands > 50 µM (inactive). Take `N#C/C(=C(/O)CSc1nnc(Cc2cccs2)n1C1CCCCC1)c1nc2ccccc2[nH]1`: the IC50 is > 50 µM (inactive).

One may read the IC50 as the concentration needed to halve the response being measured.

Values taken from PubChem BioAssay AID551 (University of Pittsburgh Molecular Library Screening Center, 2006).
